Where two headings read alike, the source gives them in different places.

The results in this text go back to paper PMC11249626, “Fluorophore-Labeled Pyrrolones Targeting the Intracellular Allosteric Binding Site of the Chemokine Receptor CCR1” (ACS Pharmacology & Translational Science, 2024).

This assay has as its target T1, CCR1 (Homo sapiens, UniProt P32246).
T1 sequence (P32246 1-355): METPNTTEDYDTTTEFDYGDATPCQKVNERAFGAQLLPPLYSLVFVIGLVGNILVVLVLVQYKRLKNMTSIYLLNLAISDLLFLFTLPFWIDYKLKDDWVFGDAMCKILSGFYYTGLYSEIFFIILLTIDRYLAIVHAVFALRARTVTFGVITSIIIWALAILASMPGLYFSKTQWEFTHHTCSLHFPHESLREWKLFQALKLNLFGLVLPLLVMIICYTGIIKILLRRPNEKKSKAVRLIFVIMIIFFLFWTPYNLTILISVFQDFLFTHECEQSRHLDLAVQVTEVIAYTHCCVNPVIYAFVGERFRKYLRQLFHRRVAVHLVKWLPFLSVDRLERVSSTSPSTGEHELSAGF
Briefly: Membrane-based NanoBRET association and dissociation kinetic assays with 12. Type of assay: binding. Also on record: Promega pNLF1-C (Nluc) #CCR010TN00; host or cells: HEK293T, transient (PEI). As for the experimental part:
Membrane-based NanoBRET association kinetic assay: 5 µL of a solution of the fluorescent ligand (12) diluted to varying concentrations (final assay concentrations: 1–3 µM) in assay buffer and 5 µL of assay buffer were transferred to a 384-well plate. For the determination of non-specific binding, we added a solution of a non-labeled competitor dissolved in assay buffer (5, final assay concentration: 10 µM) instead. After the addition of 5 µL of a furimazine solution (final assay dilution:
1:630 in assay buffer), plates were incubated for 3 minutes in the dark at ambient temperature. Subsequently, 20 µL of the membrane preparation (3 µg total protein/well) were added (final assay volume: 35 µL). BRET ratios were measured with a CLARIOstar microplate reader using 620/10 nm and 475/30 nm emission filters over time at ambient temperature.
The obtained data were analyzed using the association kinetics (one ligand concentration) algorithm in PRISM10.2.1 (GraphPad, USA) to determine association kinetics using a pre-determined koff as a constraint.
Membrane-based NanoBRET dissociation kinetic assay: 5 µL of a solution of the fluorescent ligand (12) diluted to varying concentrations (final assay concentrations: 0.25–3 µM) in assay buffer and 5 µL of assay buffer were transferred to a 384-well plate. In order to determine non-specific binding, we added a solution of a non-labeled competitor dissolved in assay buffer (5, final assay concentration: 10 µM) instead of the 5 µL of assay buffer. Then, 20 µL of the membrane preparation (3 µg total protein/well) were added, and plates were incubated for 1 h at ambient temperature in the dark.
Subsequently, 5 µL of a furimazine solution (final assay dilution: 1:630 in assay buffer) were added. Plates were incubated for further 5 minutes in the dark at ambient temperature. Thereafter, 1 µL of a solution of a […] competitor dissolved in assay buffer (5, final assay concentration: 10 µM) was added. For control experiments, we added 1 µL of assay buffer instead of the competitor solution. BRET ratios were measured with a CLARIOstar microplate reader using 620/10 nm and 475/30 nm emission filters over time at ambient temperature. Specific BRET ratios were calculated as a difference of total and non -specific binding. […]
mM HEPES, no phenol red supplemented with 5% FBS) was added and cells were incubated at 37 °C for 30 minutes.
Then, 5 µL of a solution containing the fluorescent ligand ( 12), diluted in assay medium at varying concentrations, were added in case of saturation binding experiments. To determine non-specific binding, 5 µL of a solution of 5 dissolved in assay medium (final assay concentration: 10 µM) were added. For competition binding experiments, 5 µL of a solution of the fluorescent ligand (12) diluted in assay medium (final assay concentration: 1 µM) and 5 µL of a solution of the potential competitor (diluted from 10 mM DMSO-stock solutions with assay medium) at varying concentrations were added to the corresponding wells. After 90 min of incubation at 37 °C, 5 µL of a furimazine solution (final assay dilution: 1:2500, diluted with assay medium) were added. After a further incubation of 5 min in the dark at 37 °C, BRET ratios were measured with a CLARIOstar microplate reader using 620/10 nm and 475/30 nm emission filters. Total, non-specific and specific binding, which was calculated as a difference of total and non-specific binding, were analyzed using the algorithms for one-site saturation binding in PRISM10.2.1 (GraphPad, USA). To determine the inhibition constants (Ki) of the potential competitors, data were normalized to total and non-specific binding and analyzed using the one site-fit Ki equation in PRISM10.2.1 (GraphPad, USA).
Kinetic solubility assay: Kinetic solubility was assessed in saline phosphate buffer pH 7.25 (1.19 g Na2HPO4·12 H2O, 0.095 g KH2PO4 and 4.0 g NaCl in 0.5 L double distilled water). The pH was adjusted to 7.25 with concentrated […]
hydrochloric acid. […]
On the technique in general: In BRET a luciferase serves as donor, and the signal depends on an acceptor being close.

As a reminder, the Kd is the equilibrium constant for the complex coming apart. For orientation: koff means the rate constant with which the complex falls apart. Usually kon stands for the rate constant with which the complex forms. A word on the residence time: it is the mean lifetime of the complex, commonly the reciprocal of the off-rate. With `CN(C)c1ccc2c(-c3cc(C(=O)NCCOCCOCc4cn(CCCC(=O)C5=C(O)C(=O)N(c6ccc(Br)cc6F)C5C5CCCCC5)nn4)ccc3C(=O)[O-])c3ccc(=[N+](C)C)cc-3oc2c1` (stereo not drawn) [compound 12], the dissociation constant Kd (CCR1_Nluc membranes, from kon and koff, read-out: kinetic KD value KD(kin.)) was determined as 317 ± 32 nM. For the same compound, the koff (CCR1_Nluc membranes, read-out: koff (converted)) is 0.00233 s⁻¹; the koff (dissociation at room temperature (membranes), 12 at 250-3000 nM, read-out: koff, single experiments (Table S1) (converted)) was 0.00172 s⁻¹; the koff (dissociation at room temperature (membranes), read-out: koff, mean (Table S1) (converted)) was 0.00233 s⁻¹. Besides, the kon by setting is: (CCR1_Nluc membranes, read-out: kon (converted)) 7350 M⁻¹ s⁻¹; (association at room temperature (membranes), read-out: kon, mean (Table S1) (converted)) 7360 M⁻¹ s⁻¹. Also, for the setting “CCR1_Nluc membranes, read-out: residence time tr”, the residence time turned out to be 7.31 ± 0.22 min. The “tR, mean (Table S1)” value (dissociation at room temperature (membranes)) is given as 7.31 min. The “koff, single experiments (Table S1)” value (dissociation at room temperature (membranes), 12 at 250-3000 nM) amounted to 0.001978 s⁻¹.
